Laboratory results: patent US8501946B2 (Glaxo Group Limited, priority 2009, dated 2013)

Legend:
[1] = target: T1, human recombinant P2X7 receptors (Homo sapiens, UniProt Q99572); assay: Ethidium Accumulation Assay 1 (HEK293 cells, ATP-induced ethidium uptake); type: cell-based; conditions: HEK293 cells expressing human P2X7; 1 mM ATP; sometimes mean of more than one measurement; read-out: Assay 1 (antagonist pIC50 for blocking ATP responses) (converted)
T1 construct: expressed in transfected cells
T1 sequence (Q99572 1-595): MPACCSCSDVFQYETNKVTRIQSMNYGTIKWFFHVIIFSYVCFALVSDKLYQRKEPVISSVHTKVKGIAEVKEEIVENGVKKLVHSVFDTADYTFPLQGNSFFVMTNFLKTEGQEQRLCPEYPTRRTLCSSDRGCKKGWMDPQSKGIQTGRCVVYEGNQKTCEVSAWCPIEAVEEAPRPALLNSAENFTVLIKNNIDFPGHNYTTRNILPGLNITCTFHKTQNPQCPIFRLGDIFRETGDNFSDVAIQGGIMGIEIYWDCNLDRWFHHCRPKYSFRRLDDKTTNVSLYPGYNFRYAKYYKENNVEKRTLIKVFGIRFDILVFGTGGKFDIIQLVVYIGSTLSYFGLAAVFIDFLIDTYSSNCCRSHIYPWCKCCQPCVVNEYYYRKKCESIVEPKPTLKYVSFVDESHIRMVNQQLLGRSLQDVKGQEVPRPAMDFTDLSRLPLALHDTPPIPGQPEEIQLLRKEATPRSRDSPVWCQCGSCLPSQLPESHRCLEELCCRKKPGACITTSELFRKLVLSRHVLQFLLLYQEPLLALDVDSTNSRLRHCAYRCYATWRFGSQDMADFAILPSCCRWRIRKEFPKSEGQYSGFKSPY

[2] = target: T1, human recombinant P2X7 receptors; assay: Ethidium Accumulation Assay 2 (HEK293 cells, ATP-induced ethidium uptake); type: cell-based; conditions: HEK293 cells expressing human P2X7; sometimes mean of more than one measurement; read-out: Assay 2 (antagonist pIC50 for blocking ATP responses) (converted)
Description: Eithidium Accumulation Assay 2
Human Embryonic Kidney (HEK) 293 cells, stably expressing human recombinant P2X7 receptors, were grown in poly-D-lysine pretreated 96 well plates for 24 hours at 37° C.
The cells were washed with assay buffer (100 μL), before addition of 25 μL of assay buffer and then 25 ul of assay buffer containing the putative P2X7 receptor antagonist compound. The cells were then incubated at room temperature (19-21° C.) for 30 min before addition of ATP solution (50 μM). […] Antagonist pIC50 values for blocking ATP responses were determined using iterative curve fitting techniques.

IC50 [1] [nM]	IC50 [2] [nM]	Structure (SMILES)
< 100	< 100	O=C(c1ccc(F)cc1Cl)N1CCn2c(nnc2-c2cccc(Cl)c2)C1 [Example 126, 7-[(2-chloro-4-fluorophenyl)carbonyl]-3-(3-chlorophenyl)-5,6,7,8-tetrahydro[1,2,4]triazolo[4,3-a]pyrazine]
< 10	< 10	O=C(c1ccc(F)c(Cl)c1Cl)N1CCn2c(nnc2-c2ccc(F)cn2)C1 [Example 114, 7-[(2,3-Dichloro-4-fluorophenyl)carbonyl]-3-(5-fluoro-2-pyridinyl)-5,6,7,8-tetrahydro[1,2,4]triazolo[4,3-a]pyrazine]
< 10	< 10	O=C(c1ccc(Cl)c(F)c1Cl)N1CCn2c(nnc2-c2cnccn2)C1 [Example 111, 7-[(2,4-Dichloro-3-fluorophenyl)carbonyl]-3-(2-pyrazinyl)-5,6,7,8-tetrahydro[1,2,4]triazolo[4,3-a]pyrazine]
< 100	< 100	O=C(c1cccc(C(F)(F)F)c1Cl)N1CCn2c(nnc2-c2cccnn2)C1 [Example 44, 7-{[2-chloro-3-(trifluoromethyl)phenyl]carbonyl}-3-(3-pyridazinyl)-5,6,7,8-tetrahydro[1,2,4]triazolo [4,3-a]pyrazine]
< 10	< 10	O=C(c1cccc(C(F)(F)F)c1Cl)N1CCn2c(nnc2-c2ccc(F)cn2)C1 [Example 45, 7-{[2-chloro-3-(trifluoromethyl)phenyl]carbonyl}-3-(5-fluoro-2-pyridinyl)-5,6,7,8-tetrahydro[1,2,4]triazolo[4,3-a]pyrazine]
< 100	< 501	Cc1nnc2n1CCN(C(=O)c1cccc(C(F)(F)F)c1Cl)C2 [Example 15, 7-{[2-Chloro-3-(trifluoromethyl)phenyl]carbonyl}-3-methyl-5,6,7,8-tetrahydro[1,2,4]triazolo[4,3-a]pyrazine]
< 100	< 100	CCc1nnc2n1CCN(C(=O)c1cccc(C(F)(F)F)c1Cl)C2 [Example 4, 7-{[2-chloro-3-(trifluoromethyl)phenyl]carbonyl}-3-ethyl-5,6,7,8-tetrahydro[1,2,4]triazolo [4,3-a]pyrazine]
< 501	< 501	O=C(c1cccc(C(F)(F)F)c1Cl)N1CCn2cnnc2C1 [Example 3, 7-{[2-chloro-3-(trifluoromethyl)phenyl]carbonyl}-5,6,7,8-tetrahydro[1,2,4]triazolo [4,3-a]pyrazine]
	< 10	O=C(c1ccc(Cl)c(F)c1Cl)N1CCn2c(nnc2-c2nccs2)C1 [Example 187, 7-[(2,4-Dichloro-3-fluorophenyl)carbonyl]-3-(1,3-thiazol-2-yl)-5,6,7,8-tetrahydro[1,2,4]triazolo[4,3-a]pyrazine]
